These results are taken from US20170334899A1, “AMINO-SUBSTITUTED ISOTHIAZOLES” (Bayer Pharma Aktiengesellschaft, priority 2014, published 2017).

The subject of experiment [1] is human cervical tumor cell line HeLa (ATCC CCL-2). Put plainly: SAC-Formation - Paclitaxel-Induced Assay. In kind it is cell-based. The note with it: 24 h, HeLa cells, paclitaxel 0.05 μM, test range 0.005 μM-20 μM, read-out: IC50 [mol/l] SAC-Formation - Paclitaxel-Induced Assay. The essentials: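 Read-out is high-content imaging of anti-phospho-H3 Ser10 (mitosis) and Hoechst 33342 (DNA, cell number), with decreased mitotic fraction marking checkpoint breakthrough. Compounds (0.005–20 μM) and 0.05 μM paclitaxel co-added to overnight-plated HeLa for 24 h at 37° C; four-parameter Hill fit.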

The next experiment has as its system HeLa. In words: Proliferation assay (crystal violet), HeLa. In kind it is cell-based. The note with it: HeLa cells, 4 days incubation, crystal violet staining, read-out: IC50 inhibition of proliferation, HeLa. In outline:
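Crystal violet proliferation readout, 4-day compound incubation, 0.001–10 μM, final DMSO 0.5%. Zero-point plate stained at time of dosing set as 0%, untreated control as 100%; IC50 via 4-parameter fit.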

Structures can show the parent of a compound that is named as a salt. Where two headings read alike, the source gives them in different places.

As to `Cc1nsc(Nc2cncc(C(F)(F)F)n2)c1C(=O)Nc1ccc(C(=O)NC2CCN(CC(F)(F)F)CC2)cc1` [Example 167, 3-methyl-N-(4-{[1-(2,2,2-trifluoroethyl)piperidin-4-yl]carbamoyl}phenyl)-5-{[6-(trifluoromethyl)pyrazin-2-yl]amino}-1,2-thiazole-4-carboxamide], the IC50 in experiment [1] (Homo sapiens, HeLa) was 340 nM; in the experiment with HeLa (Homo sapiens, HeLa, 96 h) it was 4300 nM.

Take `Cc1nsc(Nc2cncc(C(F)(F)F)n2)c1C(=O)Nc1ccc(F)c(OC2CCN(C(=O)OC(C)(C)C)CC2)c1` [Example 168, tert-butyl 4-(2-fluoro-5-{[(3-methyl-5-{[6-(trifluoromethyl)pyrazin-2-yl]amino}-1,2-thiazol-4-yl)carbonyl]amino}phenoxy)piperidine-1-carboxylate]: the IC50 in experiment [1] (Homo sapiens, HeLa) came to 75 nM; in the experiment on HeLa (Homo sapiens, HeLa, 96 h), 910 nM.

Regarding `Cc1nsc(Nc2cnc3ccccc3n2)c1C(=O)Nc1ccc(N2CCOCC2)nc1` [Example 169, 3-methyl-N-[6-(morpholin-4-yl)pyridin-3-yl]-5-(quinoxalin-2-ylamino)-1,2-thiazole-4-carboxamide], the IC50 in experiment [1] (Homo sapiens, HeLa) was 14000 nM; with HeLa (Homo sapiens, HeLa, 96 h), over 10000 nM.

`Cc1nsc(Nc2ccc(C#N)cn2)c1C(=O)Nc1ccc(N[C@@H](C)C(=O)OC(C)(C)C)nc1` [Example 170, tert-butyl N-{5-[({5-[(5-cyanopyridin-2-yl)amino]-3-methyl-1,2-thiazol-4-yl}carbonyl)amino]pyridin-2-yl}alaninate]: the IC50 in experiment [1] (Homo sapiens, HeLa) was 1100 nM; in the experiment with HeLa (Homo sapiens, HeLa, 96 h) it was over 10000 nM.

For the molecule `Cc1nsc(Nc2ccc(C#N)cn2)c1C(=O)Nc1ccc(NC2CCCN(C(=O)OC(C)(C)C)C2)nc1` (stereo not drawn) [Example 171, tert-butyt 3-({5-[({5-[(5-cyanopyridin-2-yl)amino]-3-methyl-1,2-thiazol-4-yl}carbonyl)amino]pyridin-2-yl}amino)piperidine-1-carboxylate], the IC50 was 4000 nM in experiment [1] (Homo sapiens, HeLa) and 6200 nM in the experiment on HeLa (Homo sapiens, HeLa, 96 h).

`Cc1nsc(Nc2cnc3ccccc3n2)c1C(=O)Nc1ccc(NC2CC2)nc1` [Example 172, N-[6-(cyclopropylamino)pyridin-3-yl]-3-methyl-5-(quinoxalin-2-ylamino)-1,2-thiazole-4-carboxamide]: the IC50 was 2300 nM in experiment [1] (Homo sapiens, HeLa) and over 10000 nM in the experiment with HeLa (Homo sapiens, HeLa, 96 h).

As to `COc1ccc(NC(=O)c2c(C)nsc2Nc2ccc(C#N)cn2)c(N2CCOCC2)n1` [Example 173, 5-[(5-cyanopyridin-2-yl)amino]-N-[6-methoxy-2-(morpholin-4-yl)pyridin-3-yl]-3-methyl-1,2-thiazole-4-carboxamide], the IC50 is 6700 nM in experiment [1] (Homo sapiens, HeLa) and over 10000 nM with HeLa (Homo sapiens, HeLa, 96 h).

Take `Cc1nsc(Nc2cnc(C(F)(F)F)cn2)c1C(=O)Nc1ccc(F)c(OCC2CCCN(CC(F)F)C2)c1` (stereo not drawn) [Example 335, N-(3-{[1-(2,2-difluoroethyl)piperidin-3-yl]methoxy}-4-fluorophenyl)-3-methyl-5-{[5-(trifluoromethyl)pyrazin-2-yl]amino}-1,2-thiazole-4-carboxamide]: the values for the IC50 (in experiment [1]; with HeLa) were 98 nM and 840 nM, respectively.

Turning to `Cc1nsc(Nc2cnc(C(F)(F)F)cn2)c1C(=O)Nc1ccc(O[C@@H]2CCN(CC(F)(F)F)C2)nc1` [Example 421, 3-Methyl-N-(6-{[(3R)-1-(2,2,2-trifluoroethyl)pyrrolidin-3-yl]oxy}pyridin-3-yl)-5-{[5-(trifluoromethyl)pyrazin-2-yl]amino}-1,2-thiazole-4-carboxamide], the values for the IC50 (in experiment [1]; with HeLa) were 330 nM and 550 nM, respectively.

Take `Cc1nsc(Nc2cnc(C(F)(F)F)cn2)c1C(=O)Nc1ccc(OC[C@@H]2CCCN(CCC(F)(F)F)C2)nc1` [Example 422, 3-Methyl-5-{[5-(trifluoromethyl)pyrazin-2-yl]amino}-N-(6-{[(3R)-1-(3,3,3-trifluoropropyl)piperidin-3-yl]methoxy}pyridin-3-yl)-1,2-thiazole-4-carboxamide]: the figures for the IC50 (in experiment [1]; in the experiment on HeLa) were 88 nM and 370 nM, respectively.

In the case of `Cc1nsc(Nc2cnc(C(F)(F)F)cn2)c1C(=O)Nc1ccc(O[C@@H]2CCN(CCC(F)(F)F)C2)nc1` [Example 423, 3-Methyl-5-{[5-(trifluoromethyl)pyrazin-2-yl]amino}-N-(6-{[(3R)-1-(3,3,3-trifluoropropyl)pyrrolidin-3-yl]oxy}pyridin-3-yl)-1,2-thiazole-4-carboxamide], the IC50 was 140 nM in experiment [1] and 410 nM in the experiment with HeLa.

Regarding `Cc1nsc(Nc2cnc(C(F)(F)F)cn2)c1C(=O)Nc1ccc(OC2CCN(CCC(F)(F)F)CC2)nc1` [Example 426, 3-Methyl-5-{[5-(trifluoromethyl)pyrazin-2-yl]amino}-N-(6-{[1-(3,3,3-trifluoro-propyl)piperidin-4-yl]oxy}pyridin-3-yl)-1,2-thiazole-4-carboxamide, Salt with Hydrochloric Acid], the IC50 in experiment [1] turned out to be 32 nM; in the experiment with HeLa, 420 nM.
